Reference: publication PMC2880318 (Immunome Research, 2010)
Where a SMILES comes first, the peptide text is derived from it.

Target: purified HLA-DRB1*0101 (Homo sapiens, UniProt P01903+P01911, A100R/D57E/F55L/F60I/F76Y/I96L/L162R/M171V/P40L/Q125E/R42F/V115G/Y59C)
Test: biochemical
Type: binding

CC[C@H](C)[C@H](NC(=O)[C@H](Cc1ccc(O)cc1)NC(=O)[C@H](CC(=O)O)NC(=O)[C@H](CCCCN)NC(=O)[C@H](CCCNC(=N)N)NC(=O)[C@@H](N)CC(C)C)C(=O)N[C@@H](CCCCN)C(=O)N[C@@H](CCCNC(=N)N)C(=O)N[C@@H](CCC(N)=O)C(=O)NCC(=O)N[C@@H](CO)C(=O)N[C@H](C(=O)N1CCC[C@H]1C(=O)N[C@@H](CC(C)C)C(=O)N[C@@H](C)C(=O)O)[C@@H](C)O [LCMV GPC421-435]
IC50: 4.8 nM

CC(C)C[C@H](NC(=O)[C@H](Cc1ccccc1)NC(=O)[C@H](CC(C)C)NC(=O)[C@@H](NC(=O)[C@@H](NC(=O)[C@@H](NC(=O)[C@@H](N)Cc1ccccc1)[C@@H](C)O)[C@@H](C)O)[C@@H](C)O)C(=O)N[C@@H](Cc1c[nH]cn1)C(=O)N[C@@H](CC(C)C)C(=O)N[C@H](C(=O)NCC(=O)N[C@@H](Cc1ccccc1)C(=O)N1CCC[C@H]1C(=O)N[C@H](C(=O)N[C@@H](Cc1c[nH]cn1)C(=O)O)[C@@H](C)O)C(C)C [SABV GPC436-450] (H-FTTTLFLHLVGFPTH-OH)
IC50: 0.92 nM

CC[C@H](C)[C@H](NC(=O)[C@H](Cc1c[nH]cn1)NC(=O)[C@H](Cc1c[nH]cn1)NC(=O)[C@@H](NC(=O)[C@H](CCC(N)=O)NC(=O)[C@H](CC(N)=O)NC(=O)[C@H](C)NC(=O)[C@H](Cc1ccccc1)NC(=O)[C@H](C)NC(=O)[C@H](CCSC)NC(=O)[C@H](CC(C)C)NC(=O)[C@H](Cc1ccccc1)NC(=O)[C@H](Cc1ccc(O)cc1)NC(=O)[C@@H](N)CCCNC(=N)N)[C@@H](C)CC)C(=O)N[C@@H](CC(=O)O)C(=O)O [MACV L636-650]
IC50: 0.24 nM

CC[C@H](C)[C@H](NC(=O)[C@H](CS)NC(=O)[C@H](CC(=O)O)NC(=O)[C@@H](N)CCSC)C(=O)N[C@H](C(=O)N[C@@H](Cc1ccccc1)C(=O)N[C@@H](CCC(=O)O)C(=O)N[C@@H](CO)C(=O)N[C@@H](C)C(=O)N[C@@H](CO)C(=O)N[C@@H](CCCCN)C(=O)N[C@@H](C)C(=O)N[C@@H](CCCNC(=N)N)C(=O)N[C@@H](CC(C)C)C(=O)N1CCC[C@H]1C(=O)O)[C@@H](C)CC [LCMV NP521-535]
IC50: 4.4 nM

CC[C@H](C)[C@H](NC(=O)[C@H](CC(C)C)NC(=O)[C@H](Cc1ccc(O)cc1)NC(=O)[C@@H](N)CC(=O)O)C(=O)N[C@@H](CC(C)C)C(=O)N[C@@H](CCCCN)C(=O)N[C@@H](CC(N)=O)C(=O)N[C@@H](CC(C)C)C(=O)N[C@H](C(=O)NCC(=O)N[C@@H](CC(C)C)C(=O)N[C@H](C(=O)N[C@@H](CO)C(=O)N[C@@H](C)C(=O)NCC(=O)O)C(C)C)[C@@H](C)O [MACV L866-880]
IC50: 0.21 nM

CC[C@H](C)[C@H](NC(=O)[C@@H](N)Cc1ccccc1)C(=O)N[C@H](C(=O)N[C@@H](Cc1ccccc1)C(=O)N[C@@H](CC(C)C)C(=O)N[C@@H](CC(C)C)C(=O)N[C@@H](CC(C)C)C(=O)N[C@@H](C)C(=O)NCC(=O)N[C@@H](CCCNC(=N)N)C(=O)N[C@@H](CO)C(=O)N[C@@H](CS)C(=O)N[C@@H](CO)C(=O)N[C@@H](Cc1ccc(O)cc1)C(=O)N[C@@H](CCCCN)C(=O)O)C(C)C [WWAV GPC46-60] (H-FIVFLLLAGRSCSYK-OH)
IC50: 1.2 nM

CC[C@H](C)[C@H](NC(=O)CNC(=O)[C@@H](NC(=O)[C@H](CC(C)C)NC(=O)[C@H](Cc1c[nH]cn1)NC(=O)[C@H](CC(C)C)NC(=O)[C@H](Cc1ccccc1)NC(=O)[C@H](CC(C)C)NC(=O)[C@H](CO)NC(=O)[C@H](C)N)C(C)C)C(=O)N1CCC[C@H]1C(=O)N[C@H](C(=O)N[C@@H](Cc1c[nH]cn1)C(=O)N[C@@H](CCCNC(=N)N)C(=O)N[C@@H](Cc1c[nH]cn1)C(=O)O)[C@@H](C)O [MACV GPC446-460]
IC50: 0.13 nM

CC[C@H](C)[C@H](NC(=O)[C@H](Cc1c[nH]c2ccccc12)NC(=O)[C@H](CC(=O)O)NC(=O)[C@H](Cc1ccccc1)NC(=O)[C@H](CCC(=O)O)NC(=O)[C@@H]1CCCN1C(=O)[C@H](CO)NC(=O)CNC(=O)[C@@H](N)CCCCN)C(=O)N[C@@H](CC(C)C)C(=O)NCC(=O)N[C@@H](Cc1c[nH]c2ccccc12)C(=O)N[C@H](C(=O)N[C@H](C(=O)N[C@@H](CCCCN)C(=O)O)[C@@H](C)CC)[C@@H](C)O [GTOV GPC131-145] (H-KGSPEFDWILGWTIK-OH)
IC50: 1.7 nM

CC[C@H](C)[C@H](NC(=O)[C@H](C)NC(=O)[C@H](CCC(=O)O)NC(=O)[C@H](CC(C)C)NC(=O)[C@@H](NC(=O)[C@H](CC(=O)O)NC(=O)[C@H](CC(C)C)NC(=O)[C@H](CC(C)C)NC(=O)[C@@H](N)CCCNC(=N)N)[C@@H](C)CC)C(=O)N[C@@H](CCCCN)C(=O)N[C@@H](CC(C)C)C(=O)N[C@H](C(=O)N[C@@H](CCCNC(=N)N)C(=O)N[C@@H](CCCCN)C(=O)N[C@@H](CCCCN)C(=O)O)[C@@H](C)CC [JUNV L391-405]
IC50: 0.48 nM

CSCC[C@H](NC(=O)[C@H](CCC(N)=O)NC(=O)[C@@H](NC(=O)[C@H](Cc1c[nH]c2ccccc12)NC(=O)[C@@H](N)CCCCN)C(C)C)C(=O)N[C@@H](CS)C(=O)N[C@@H](CO)C(=O)N[C@@H](CCCNC(=N)N)C(=O)N[C@H](C(=O)N[C@@H](CC(C)C)C(=O)N[C@@H](CCCCN)C(=O)N[C@@H](CC(N)=O)C(=O)N[C@@H](CO)C(=O)N[C@@H](Cc1c[nH]cn1)C(=O)N[C@@H](CCC(N)=O)C(=O)O)[C@@H](C)O [JUNV L411-425]
IC50: 1.1 nM

CC(C)C[C@H](NC(=O)CNC(=O)[C@H](CC(C)C)NC(=O)[C@H](CO)NC(=O)[C@@H](NC(=O)[C@H](CC(C)C)NC(=O)[C@H](C)NC(=O)[C@H](CCC(N)=O)NC(=O)[C@@H](NC(=O)[C@@H](NC(=O)[C@H](CC(N)=O)NC(=O)[C@@H](N)CC(N)=O)C(C)C)C(C)C)[C@@H](C)O)C(=O)N[C@@H](CC(C)C)C(=O)N[C@@H](Cc1ccc(O)cc1)C(=O)N[C@H](C(=O)O)[C@@H](C)O [GTOV NP191-205]
IC50: 0.29 nM

CC[C@H](C)[C@H](NC(=O)[C@H](CC(C)C)NC(=O)[C@H](Cc1ccccc1)NC(=O)[C@@H](NC(=O)[C@H](CC(N)=O)NC(=O)[C@@H](NC(=O)CNC(=O)CNC(=O)[C@H](CCCCN)NC(=O)[C@H](CCSC)NC(=O)[C@H](Cc1ccc(O)cc1)NC(=O)[C@H](Cc1ccc(O)cc1)NC(=O)[C@H](Cc1ccccc1)NC(=O)[C@H](CO)NC(=O)[C@@H](N)CC(N)=O)C(C)C)[C@@H](C)O)C(=O)O [MACV GPC96-110]
IC50: 0.21 nM

CC[C@H](C)[C@H](NC(=O)[C@H](CC(C)C)NC(=O)[C@H](CCCNC(=N)N)NC(=O)[C@H](Cc1c[nH]cn1)NC(=O)[C@H](Cc1ccc(O)cc1)NC(=O)[C@H](CCC(=O)O)NC(=O)[C@H](CCC(N)=O)NC(=O)[C@@H](N)CC(=O)O)C(=O)N[C@@H](Cc1c[nH]cn1)C(=O)N[C@@H](CO)C(=O)N[C@@H](CC(C)C)C(=O)N[C@@H](CO)C(=O)N[C@@H](CCCCN)C(=O)N[C@H](C(=O)N[C@@H](CO)C(=O)O)[C@@H](C)O [GTOV L181-195] (H-DQEYHRLIHSLSKTS-OH)
IC50: 0.34 nM

CC[C@H](C)[C@H](N)C(=O)N[C@@H](CO)C(=O)NCC(=O)N[C@@H](Cc1ccc(O)cc1)C(=O)N[C@@H](CC(N)=O)C(=O)N[C@@H](Cc1ccccc1)C(=O)N[C@@H](CO)C(=O)N[C@@H](CC(C)C)C(=O)N[C@@H](CO)C(=O)N[C@@H](C)C(=O)N[C@@H](C)C(=O)N[C@H](C(=O)N[C@@H](CCCCN)C(=O)N[C@@H](C)C(=O)NCC(=O)O)C(C)C [GTOV NP236-250]
IC50: 0.12 nM
